# From patent US11964990B2, “1,3,4,7-tetrahydro-2H-pyrrolo[3′,2′:5,6]pyrido[2,3-b][1,4]oxazepine bcl-2 inhibitors” (AbbVie Inc., priority 2022, dated 2024)
# What was measured:
# [1] = tested on: Molt-4 cells; test: Cell viability counter screen assay (CellTiter-Glo) in Molt-4 cells; type: cell-based; details: 24 hours, 10% Human Serum, 50% decrease in cell viability
# Text: (§1) The acute lymphoblastic leukemia (ALL) human cell line RS4;11 (ATCC, Manassas VA) was used as the primary human cell line to assess the cellular activity of compound of the present Examples in vitro and their efficacy in vivo. BH3 profiling, a mitochondrial assay that classifies blocks in the intrinsic apoptotic pathway, has shown that RS4;11 cells were highly dependent on Bcl-2 protein for survival and were sensitive to a Bcl-2 inhibitor (Blood. 2008; 111(4):2300-2309). […] The acute lymphoblastic leukemia cell line Molt-4, which is derived from immature T-lymphoid cells (T-ALL), was used as a counter screen assay.
# (§2) Frozen RS4;11 or Molt-4 cells (ATCC, Manassas, VA, USA) were thawed overnight in RPMI 1640 media (Thermo Fisher Scientific, Waltham, MA, USA) supplemented with 1% penicillin/streptomycin (Thermo Fisher Scientific, Waltham, MA, USA), and 10% Human Serum (Sigma, St. Louis, MO, USA). 3000 Cells (0.1×10^6/mL) were seeded in each well of 384-well plate and were treated for 24 hours in a humidified chamber with 5% CO2. Cell viability was determined by CellTiter-Glo as described by the manufacturer's instructions (Promega Corporation, Madison, WI, USA). Responses were determined as a percentage of the control treated cells and the effective concentration (EC50) to induce a 50% decrease in cell viability were determined from sigmoidal dose-response curves using Dotmatics (Dotmatics Software Company, Bishops Stortford, Hertfordshire, England).
# [2] = tested on: RS4;11 cells; test: Cell viability assay (CellTiter-Glo) in RS4;11 cell line; type: cell-based; details: 24 hours, 10% Human Serum, 50% decrease in cell viability
# Text: as §1, §2
SMILES,EC50 [2] [nM],EC50 [1] [nM]
"C[C@@H]1CO[C@@H](COc2ccc(S(=O)(=O)NC(=O)c3ccc(N4CCN5CC6=C(c7ccc(Cl)cc7)CC(C)(C)C[C@H]6OCCCOC[C@@H]5C4)cc3N3CCCOc4nc5[nH]ccc5cc43)cc2[N+](=O)[O-])CO1 [Example 20, 4-((4aS,10aR)-14-(4-chlorophenyl)-12,12-dimethyl-1,2,4a,5,8,9,10a,11,13,15-decahydro-7H,12H-benzo[f]pyrazino[2,1-c][1,8]dioxa[4]azacycloundecin-3(4H)-yl)-2-(3,4-dihydro-2H-pyrrolo[3′,2′:5,6]pyrido[2,3-b][1,4]oxazepin-1(7H)-yl)-N-((4-(((2R,5R)-5-methyl-1,4-dioxan-2-yl)methoxy)-3-nitrophenyl)sulfonyl)benzamide]",5.21,1610
"C[C@@H]1CC[C@H](CNc2ccc(S(=O)(=O)NC(=O)c3ccc(N4CCN5CC6=C(c7ccc(Cl)cc7)CC(C)(C)C[C@H]6OCCCOC[C@@H]5C4)cc3N3CCCOc4nc5[nH]ccc5cc43)cc2[N+](=O)[O-])OC1 [Example 21, 4-((4aS,10aR)-14-(4-chlorophenyl)-12,12-dimethyl-1,2,4a,5,8,9,10a,11,13,15-decahydro-7H,12H-benzo[f]pyrazino[2,1-c][1,8]dioxa[4]azacycloundecin-3(4H)-yl)-2-(3,4-dihydro-2H-pyrrolo[3′,2′:5,6]pyrido[2,3-b][1,4]oxazepin-1(7H)-yl)-N-((4-((((2R,5R)-5-methyltetrahydro-2H-pyran-2-yl)methyl)amino)-3-nitrophenyl)sulfonyl)benzamide]",4.89,3280
"C[C@@H]1CO[C@@H](CNc2ccc(S(=O)(=O)NC(=O)c3ccc(N4CCN5CC6=C(c7ccc(Cl)cc7)CC(C)(C)C[C@H]6OCCCOC[C@@H]5C4)cc3N3CCCOc4nc5[nH]ccc5cc43)cc2[N+](=O)[O-])CO1 [Example 6, 4-((4aS,10aR)-14-(4-chlorophenyl)-12,12-dimethyl-1,2,4a,5,8,9,10a,11,13,15-decahydro-7H,12H-benzo[f]pyrazino[2,1-c][1,8]dioxa[4]azacycloundecin-3(4H)-yl)-2-(3,4-dihydro-2H-pyrrolo[3′,2′:5,6]pyrido[2,3-b][1,4]oxazepin-1(7H)-yl)-N-((4-((((2S,5R)-5-methyl-1,4-dioxan-2-yl)methyl)amino)-3-nitrophenyl)sulfonyl)benzamide]",1.55,1910
"CC1(C)CC(c2ccc(Cl)cc2)=C2CN3CCN(c4ccc(C(=O)NS(=O)(=O)c5ccc(OC[C@H]6CC[C@@](C)(O)CC6)c([N+](=O)[O-])c5)c(N5CCCOc6nc7[nH]ccc7cc65)c4)C[C@H]3COCCCO[C@@H]2C1 [Example 49, 4-((4aS,10aR)-14-(4-chlorophenyl)-12,12-dimethyl-1,2,4a,5,8,9,10a,11,13,15-decahydro-7H,12H-benzo[f]pyrazino[2,1-c][1,8]dioxa[4]azacycloundecin-3(4H)-yl)-2-(3,4-dihydro-2H-pyrrolo[3′,2′:5,6]pyrido[2,3-b][1,4]oxazepin-1(7H)-yl)-N-((4-(((1s,4s)-4-hydroxy-4-methylcyclohexyl)methoxy)-3-nitrophenyl)sulfonyl)benzamide]",25,36
"CC1(C)CC(c2ccc(Cl)cc2)=C2CN3CCN(c4ccc(C(=O)NS(=O)(=O)c5ccc(OCC6(F)CCN(C7COC7)CC6)c([N+](=O)[O-])c5)c(N5CCCOc6nc7[nH]ccc7cc65)c4)C[C@H]3COCCCO[C@@H]2C1 [Example 19, 4-((4aS,10aR)-14-(4-chlorophenyl)-12,12-dimethyl-1,2,4a,5,8,9,10a,11,13,15-decahydro-7H,12H-benzo[f]pyrazino[2,1-c][1,8]dioxa[4]azacycloundecin-3(4H)-yl)-2-(3,4-dihydro-2H-pyrrolo[3′,2′:5,6]pyrido[2,3-b][1,4]oxazepin-1(7H)-yl)-N-((4-((4-fluoro-1-(oxetan-3-yl)piperidin-4-yl)methoxy)-3-nitrophenyl)sulfonyl)benzamide]",0.881,132
"CO[C@H]1CC[C@H](COc2ccc(S(=O)(=O)NC(=O)c3ccc(N4CCN5CC6=C(c7ccc(Cl)cc7)CC(C)(C)C[C@H]6OCCCOC[C@@H]5C4)cc3N3CCCOc4nc5[nH]ccc5cc43)cc2Cl)OC1 [Example 40, N-((3-chloro-4-(((2R,5S)-5-methoxytetrahydro-2H-pyran-2-yl)methoxy)phenyl)sulfonyl)-4-((4aS,10aR)-14-(4-chlorophenyl)-12,12-dimethyl-1,2,4a,5,8,9,10a,11,13,15-decahydro-7H,12H-benzo[f]pyrazino[2,1-c][1,8]dioxa[4]azacycloundecin-3(4H)-yl)-2-(3,4-dihydro-2H-pyrrolo[3′,2′:5,6]pyrido[2,3-b][1,4]oxazepin-1(7H)-yl)benzamide]",24.5,> 10000

# Now from value to molecule, other results behind:
EC50 [2] [nM],SMILES,EC50 [1] [nM]
2.82,"CC1(C)CC(c2ccc(Cl)cc2)=C2CN3CCN(c4ccc(C(=O)NS(=O)(=O)c5ccc(NCC6(O)COC6)c([N+](=O)[O-])c5)c(N5CCCOc6nc7[nH]ccc7cc65)c4)C[C@H]3COCCCO[C@@H]2C1 [Example 17, 4-((4aS,10aR)-14-(4-chlorophenyl)-12,12-dimethyl-1,2,4a,5,8,9,10a,11,13,15-decahydro-7H,12H-benzo[f]pyrazino[2,1-c][1,8]dioxa[4]azacycloundecin-3(4H)-yl)-2-(3,4-dihydro-2H-pyrrolo[3′,2′:5,6]pyrido[2,3-b][1,4]oxazepin-1(7H)-yl)-N-((4-(((3-hydroxyoxetan-3-yl)methyl)amino)-3-nitrophenyl)sulfonyl)benzamide]",723
1.43,"CC1(C)CC(c2ccc(Cl)cc2)=C2CN3CCN(c4ccc(C(=O)NS(=O)(=O)c5ccc(NCC6(O)CCOCC6)c([N+](=O)[O-])c5)c(N5CCCOc6nc7[nH]ccc7cc65)c4)C[C@H]3COCCCO[C@@H]2C1 [Example 18, 4-((4aS,10aR)-14-(4-chlorophenyl)-12,12-dimethyl-1,2,4a,5,8,9,10a,11,13,15-decahydro-7H,12H-benzo[f]pyrazino[2,1-c][1,8]dioxa[4]azacycloundecin-3(4H)-yl)-2-(3,4-dihydro-2H-pyrrolo[3′,2′:5,6]pyrido[2,3-b][1,4]oxazepin-1(7H)-yl)-N-((4-(((4-hydroxytetrahydro-2H-pyran-4-yl)methyl)amino)-3-nitrophenyl)sulfonyl)benzamide]",426
0.651,"CC1(C)CC(c2ccc(Cl)cc2)=C2CN3CCN(c4ccc(C(=O)NS(=O)(=O)c5ccc(NC[C@H]6CC[C@](C)(O)CO6)c([N+](=O)[O-])c5)c(N5CCCOc6nc7[nH]ccc7cc65)c4)C[C@H]3COCCCO[C@@H]2C1 [Example 2, 4-((4aS,10aR)-14-(4-chlorophenyl)-12,12-dimethyl-1,2,4a,5,8,9,10a,11,13,15-decahydro-7H,12H-benzo[f]pyrazino[2,1-c][1,8]dioxa[4]azacycloundecin-3(4H)-yl)-2-(3,4-dihydro-2H-pyrrolo[3′,2′:5,6]pyrido[2,3-h][1,4]oxazepin-1(7H)-yl)-N-((4-((((2R,5S)-5-hydroxy-5-methyltetrahydro-2H-pyran-2-yl)methyl)amino)-3-nitrophenyl)sulfonyl)benzamide]",1220
1.67,"CC1(C)CC(c2ccc(Cl)cc2)=C2CN3CCN(c4ccc(C(=O)NS(=O)(=O)c5ccc(NC[C@H]6CC[C@](C)(O)CC6)c([N+](=O)[O-])c5)c(N5CCCOc6nc7[nH]ccc7cc65)c4)C[C@H]3COCCCO[C@@H]2C1 [Example 32, 4-((4aS,10aR)-14-(4-chlorophenyl)-12,12-dimethyl-1,2,4a,5,8,9,10a,11,13,15-decahydro-7H,12H-benzo[f]pyrazino[2,1-c][1,8]dioxa[4]azacycloundecin-3(4H)-yl)-2-(3,4-dihydro-2H-pyrrolo[3′,2′:5,6]pyrido[2,3-b][1,4]oxazepin-1(7H)-yl)-N-((4-((((1r,4r)-4-hydroxy-4-methylcyclohexyl)methyl)amino)-3-nitrophenyl)sulfonyl)benzamide]",9570
4.38,"COC1(CNc2ccc(S(=O)(=O)NC(=O)c3ccc(N4CCN5CC6=C(c7ccc(Cl)cc7)CC(C)(C)C[C@H]6OCCCOC[C@@H]5C4)cc3N3CCCOc4nc5[nH]ccc5cc43)cc2[N+](=O)[O-])CCOCC1 [Example 26, 4-((4aS,10aR)-14-(4-chlorophenyl)-12,12-dimethyl-1,2,4a,5,8,9,10a,11,13,15-decahydro-7H,12H-benzo[f]pyrazino[2,1-c][1,8]dioxa[4]azacycloundecin-3(4H)-yl)-2-(3,4-dihydro-2H-pyrrolo[3′,2′:5,6]pyrido[2,3-b][1,4]oxazepin-1(7H)-yl)-N-((4-(((4-methoxytetrahydro-2H-pyran-4-yl)methyl)amino)-3-nitrophenyl)sulfonyl)benzamide]",> 10000
4.1,"CO[C@H]1C[C@H](Nc2ccc(S(=O)(=O)NC(=O)c3ccc(N4CCN5CC6=C(c7ccc(Cl)cc7)CC(C)(C)C[C@H]6OCCCOC[C@@H]5C4)cc3N3CCCOc4nc5[nH]ccc5cc43)cc2[N+](=O)[O-])C1 [Example 30, 4-((4aS,10aR)-14-(4-chlorophenyl)-12,12-dimethyl-1,2,4a,5,8,9,10a,11,13,15-decahydro-7H,12H-benzo[f]pyrazino[2,1-c][1,8]dioxa[4]azacycloundecin-3(4H)-yl)-2-(3,4-dihydro-2H-pyrrolo[3′,2′:5,6]pyrido[2,3-b][1,4]oxazepin-1(7H)-yl)-N-((4-(((1r,3r)-3-methoxycyclobutyl)amino)-3-nitrophenyl)sulfonyl)benzamide]",> 10000
